Assay: lung retention after intratracheal administration (lung homogenate, plasma)
Assay type: in vivo
Details: guinea pig lung; for C48L/C0.5L (amount in the lung 48 hours vs 0.5 hours after administration): intratracheal administration
Text: MRTL and […]/C0.5L (%) are two meaningful and predictive parameters of the duration of a drug's effect after single dose pulmonary administration.

Compound | C48L/C0.5L (amount in the lung 48 hours vs 0.5 hours after administration) [%] | MRT (lung homogenate, inhaled or intranasal, intratracheal 10 nmol/kg, read-out: MRTL (Mean Residence Time in the Lung)) [h]
CC(C)[N+]1(C)[C@@H]2CC[C@H]1CC(OC(=O)C(CO)c1ccccc1)C2.[Br-] (stereo partly drawn) [ipratropium bromide] | 0.3 | –
C[N+]1(C)[C@@H]2C[C@@H](OC(=O)C(O)(c3cccs3)c3cccs3)C[C@H]1[C@@H]1O[C@@H]12 [tiotropium bromide] | 2.3 | 7.1
